Source: patent US20210395241A1, “NLRP MODULATORS” (Novartis AG, priority 2018, published 2021)

Legend:
[1] = system: IL-1β production in PMA-differentiated THP-1 cells; experiment: IL-1β production in PMA-differentiated THP-1 cells stimulated with gramicidin (hTHP-1 assay); format: cell-based; conditions: Homo sapiens, gramicidin 5 μM, 2% fetal bovine serum
Procedure: Procedure 1: IL-1β Production in PMA-Differentiated THP-1 Cells Stimulated with Gramicidin.
THP-1 cells were purchased from the American Type Culture Collection and sub-cultured according to instructions from the supplier. Cells were cultured in complete RPMI 1640 (containing 10% heat inactivated FBS, penicillin (100 units/ml) and streptomycin (100 μg/ml)), and maintained in log phase prior to experimental setup. Prior to the experiment, compounds were dissolved in dimethyl sulfoxide (DMSO) to generate a 30 mM stock. The compound stock was first pre-diluted in DMSO to 3, 0.34, 0.042 and 0.0083 mM intermediate concentrations and subsequently spotted using Echo550 liquid handler into an empty 384-well assay plate to achieve desired final concentration (e.g. 100, 33, 11, 3.7, 1.2, 0.41, 0.14, 0.046, 0.015, 0.0051, 0.0017 μM). DMSO was backfilled in the plate to achieve a final DMSO assay concentration of 0.37%. The plate was then sealed and stored at room temperature until required.
THP-1 cells were treated with PMA (Phorbol 12-myristate 13-acetate) (20 ng/ml) for 16-18 hours. On the day of the experiment the media was removed and adherent cells were detached with trypsin for 5 minutes. Cells were then harvested, washed with complete RPMI 1640, spun down, and resuspended in RPMI 1640 (containing 2% heat inactivated FBS, penicillin (100 units/ml) and streptomycin (100 μg/ml). The cells were plated in the 384-well assay plate containing the spotted compounds at a density of 50,000 cells/well (final assay volume 50 μl). Cells were incubated with compounds for 1 hour and then stimulated with gramicidin (5 μM) (Enzo) for 2 hours. Plates were then centrifuged at 340 g for 5 min. Cell free supernatant (40 μL) was collected using a 96-channel PlateMaster (Gilson) and the production of IL-1β was evaluated by HTRF (cisbio). The plates were incubated for 18 h at 4° C. and read using the preset HTRF program (donor emission at 620 nm, acceptor emission at 668 nm) of the SpectraMax i3x spectrophotometer (Molecular Devices, software SoftMax 6). A vehicle only control and a dose titration of CRID3 (100-0.0017 μM) were run concurrently with each experiment. Data was normalized to vehicle-treated samples (equivalent to 0% inhibition) and CRID3 at 100 μM (equivalent to 100% inhibition).
Procedure 2: IL-1β Production in PMA-Differentiated THP-1 Cells Stimulated with Gramicidin.
THP-1 cells were purchased from the American Type Culture Collection and sub-cultured according to instructions from the supplier. Prior to experiments, cells were cultured in complete RPMI 1640 (containing 10% heat inactivated FBS, penicillin (100 units/ml) and streptomycin (100 μg/ml)), and maintained in log phase prior to experimental setup. Prior to the experiment THP-1 were treated with PMA (Phorbol 12-myristate 13-acetate) (20 ng/ml) for 16-18 hours. Compounds were dissolved in dimethyl sulfoxide (DMSO) to generate a 30 mM stock. On the day of the experiment the media was removed and adherent cells were detached with trypsin for 5 minutes. Cells were then harvested, washed with complete RPMI 1640, spun down, resuspended in RPMI 1640 (containing 2% heat inactivated FBS, penicillin (100 units/ml) and streptomycin (100 μg/ml). The cells were plated in a 384-well plate at a density of 50,000 cells/well (final assay volume 50 μl). Compounds were first dissolved in assay medium to obtain a 5× top concentration of 500 μM. 10 step dilutions (1:3) were then undertaken in assay medium containing 1.67% DMSO. 5× compound solutions were added to the culture medium to achieve desired final concentration (e.g. 100, 33, 11, 3.7, 1.2, 0.41, 0.14, 0.046, 0.015, 0.0051, 0.0017 μM). Final DMSO concentration was at 0.37%. Cells were incubated with compounds for 1 hour and then stimulated with gramicidin (5 μM) (Enzo) for 2 hours. Plates were then centrifuged at 340 g for 5 min. […]

[2] = Colon pharmacokinetics in mice; format: in vivo; conditions: 30 mg/kg oral gavage in 0.5% methyl-cellulose in water, male C57BL/6 mouse, colon conc. to plasma conc. ratio at 8 h; read-out: Mouse TD Colon/Plasma @ 8 h
Procedure: Assay 2: Colon Pharmacokinetics in Mice
The test compound was formulated in 0.5% methyl-cellulose in water and dosed via oral gavage at 30 mg/kg to Male C57BL/6 Mouse. At various time points (typically 15 min, 30 min, 1, 2, 4, 6 and 8 h) post dosing, blood samples were removed via cardiac […] puncture and intact colons were excised from the […]. Blood samples were centrifuged at 1500×g for 15 min to collect plasma. At the terminal time point each individual animal is anaesthetized, abdominal cavity is opened and from 2 cm below the caecum a 4 cm sample of the colon is dissected, cut open on the longitudinal axis and the solid contents removed by flushing with 2 mL of physiological fluid. The colon was further washed by putting it in 5 mL of physiological saline and shaken for 1 minute. The colon was pet dry weighed and transferred in 2 mL tubes. Colon will be weighted and homogenized with water by tissue weight (g) to water volume (mL) at ratio 1:3 before analysis. The actual concentration is the detected value multiplied by the dilution factor. A colon to plasma ratio was determined as the ratio of the colon conc. to the plasma conc. in pg hr/g. at 8 h time point.

SMILES	IC50 ([1]; class symbols) [nM]	IC50 ([1]; given as numeric bound) [nM]	Kp at 8 h [2]
CC(C)c1ccc(C#N)c(C(C)C)c1CC(=O)NS(=O)(=O)c1sc(C(C)(C)O)nc1CO [Compound 104]	5000 to 30000	–	–
COc1cc(S(=O)(=O)NCCO)ccc1S(=O)(=O)NC(=O)Cc1c(C(C)C)cc(C#N)c(F)c1C(C)C [Compound 106]	5000 to 30000	–	–
CC(C)c1cncc(C(C)C)c1CC(=O)NS(=O)(=O)c1sc(C(C)(C)O)nc1CO [Compound 109]	5000 to 30000	–	–
CNS(=O)(=O)c1ccc(S(=O)(=O)NC(=O)Cc2c(C(C)C)cc(C#N)c(F)c2C(C)C)c(C(N)=O)c1 [Compound 111]	5000 to 30000	–	–
CNS(=O)(=O)c1ccc(S(=O)(=O)NC(=O)Cc2c(C(C)C)cc(C#N)c(F)c2C(C)C)c(C(=O)N(C)C)c1 [Compound 112]	–	> 100000	–
CNS(=O)(=O)c1ccc(S(=O)(=O)NC(=O)Cc2c(C(C)C)cc(C#N)c(F)c2C(C)C)c(C(=O)O)c1 [Compound 114]	–	> 100000	–
CNS(=O)(=O)c1ccc(S(=O)(=O)NC(=O)Cc2c(C(C)C)cc(C#N)c(F)c2C(C)C)c(OC)c1 [Compound 117]	200 to 1000	–	3380
CCC(C)c1cc(C#N)cc(C(C)C)c1CC(=O)NS(=O)(=O)c1sc(C(C)(C)O)nc1CO (stereo not drawn) [Compound 119]	200 to 1000	–	6720
CNS(=O)(=O)c1ccc(S(=O)(=O)NC(=O)Cc2c(C(C)C)cc(C#N)c(F)c2C(C)C)c(C(=O)OC)c1 [Compound 120]	5000 to 30000	–	–
CC(C)Cc1cc(C#N)cc(C(C)C)c1CC(=O)NS(=O)(=O)c1sc(C(C)(C)O)nc1CO [Compound 122]	1000 to 5000	–	1480
Cc1cc(C(C)(C)O)c(CO)cc1S(=O)(=O)NC(=O)Cc1c(C(C)C)cc(C#N)cc1C(C)C [Compound 123]	5000 to 30000	–	–
CC(C)c1cc(C#N)c(F)c(C(C)C)c1CC(=O)NS(=O)(=O)c1ccc(S(=O)(=O)NC(C)(C)C)cc1CO [Compound 124]	–	> 100000	–
CC(C)c1cc(C#N)c(F)c(C(C)C)c1CC(=O)NS(=O)(=O)c1ccc(S(N)(=O)=O)cc1CO [Compound 126]	–	> 100000	–
CNS(=O)(=O)c1ccc(S(=O)(=O)NC(=O)Cc2c(C(C)C)cc(C#N)c(F)c2C(C)C)c(CO)c1 [Compound 127]	200 to 1000	–	197
CNS(=O)(=O)c1ccc(S(=O)(=O)NC(=O)Cc2c(C(C)C)cc(C#N)c(F)c2C(C)C)cc1CO [Compound 128]	200 to 1000	–	1180
CC(C)c1cc(C#N)c(F)c(C(C)C)c1CC(=O)NS(=O)(=O)c1ccc(S(N)(=O)=O)c(CO)c1 [Compound 131]	1000 to 5000	–	–
CNC(=O)c1cc(S(=O)(=O)NC(=O)Cc2c(C(C)C)cc(C#N)c(F)c2C(C)C)ccc1S(=O)(=O)NC [Compound 132]	5000 to 30000	–	–
CC(C)c1cc(C#N)c(F)c(C(C)C)c1CC(=O)NS(=O)(=O)c1ccc(CN(C)C)c(CO)c1 [Compound 133]	1000 to 5000	–	–
CC(C)c1cc(C#N)cc(C(C)C)c1CC(=O)NS(=O)(=O)c1sc(C(C)(C)O)nc1CO [Compound 134]	1000 to 5000	–	–
CC(C)c1cc(C#N)cc(C(C)C)c1CC(=O)NS(=O)(=O)c1ccc(CN(C)C)c(CO)c1 [Compound 137]	5000 to 30000	–	–
CC(C)c1cc(C#N)c(F)c(C(C)C)c1CC(=O)NS(=O)(=O)c1ccc(C(C)(C)O)c(CO)c1 [Compound 138]	1000 to 5000	–	–
CNS(=O)(=O)c1ccc(S(=O)(=O)NC(=O)Cc2c(C(C)C)cc(COC3CCCC3)cc2C(C)C)c(CO)c1 [Compound 140]	40 to 200	–	558

Continued, in another order:

IC50 ([1]; class symbols) [nM]	IC50 ([1]; given as numeric bound) [nM]	SMILES	Kp at 8 h [2]
1000 to 5000	–	CC(C)c1cc(-c2ccc3c(c2)COCC3)cc(C(C)C)c1CC(=O)NS(=O)(=O)c1sc(C(C)(C)O)nc1CO [Compound 101]	–
1000 to 5000	–	CC(C)c1cc2c(c(C(C)C)c1CC(=O)NS(=O)(=O)c1sc(C(C)(C)O)nc1CO)COC2 [Compound 102]	–
1000 to 5000	–	COc1cc(S(=O)(=O)NCCCO)ccc1S(=O)(=O)NC(=O)Cc1c(C(C)C)cc(C#N)c(F)c1C(C)C [Compound 103]	–
1000 to 5000	–	CC(C)c1c(F)c(C#N)cc(C2CC2)c1CC(=O)NS(=O)(=O)c1sc(C(C)(C)O)nc1CO [Compound 105]	–
200 to 1000	–	CNS(=O)(=O)c1ccc(S(=O)(=O)NC(=O)Cc2c(C(C)C)cc(C#N)c(F)c2C(C)C)c(O)c1 [Compound 107]	–
200 to 1000	–	CC(C)c1cc(C#N)c(F)c(C(C)C)c1CC(=O)NS(=O)(=O)c1sc(C(C)(C)O)nc1CCO [Compound 108]	–
1000 to 5000	–	CNS(=O)(=O)c1ccc(S(=O)(=O)NC(=O)Cc2c(C(C)C)cc(COC)cc2C(C)C)c(CO)c1 [Compound 116]	–
1000 to 5000	–	COCc1cc(C(C)C)c(CC(=O)NS(=O)(=O)c2sc(C(C)(C)O)nc2CO)c(C(C)C)c1 [Compound 118]	–
1000 to 5000	–	CC(C)c1cc(C#N)c(F)c(C(C)C)c1CC(=O)NS(=O)(=O)c1cc(CO)c(C(C)(C)O)cc1F [Compound 125]	–
1000 to 5000	–	CNS(=O)(=O)c1cc(CO)cc(S(=O)(=O)NC(=O)Cc2c(C(C)C)cc(C#N)c(F)c2C(C)C)c1 [Compound 129]	–
1000 to 5000	–	CC(C)c1cc(C#N)cc(C(C)C)c1CC(=O)NS(=O)(=O)c1cc(CO)c(C(C)(C)O)cc1F [Compound 130]	–
200 to 1000	–	CC(C)c1c(F)c(C#N)c(F)c(C(C)C)c1CC(=O)NS(=O)(=O)c1sc(C(C)(C)O)nc1CO [Compound 135]	–
200 to 1000	–	CC(C)c1cc(C#N)c(F)c(C(C)C)c1CC(=O)NS(=O)(=O)c1sc(C(C)(C)O)nc1CO [Compound 136]	–
8 to 40	–	CC(C)c1cc(-c2ccc3c(c2)OC(F)(F)O3)cc(C(C)C)c1CC(=O)NS(=O)(=O)c1sc(C(C)(C)O)nc1CO [Compound 142]	–
